Experimental data: PMC8344021, “Discovery of Small Molecule Bak Activator for Lung Cancer Therapy” (Theranostics, 2021)

Molecular target: T1, BH3 deletion human Bak mutant protein (ΔBH3) (Homo sapiens, UniProt Q16611, DEL74-90)
T1 construct: His6; made in house; host or cells: Escherichia coli BL21 DE3
Assay: Isothermal titration calorimetry (ITC), BH3 deletion mutant
Assay type: binding
Procedure: The binding affinity of BKA-073 with Bak protein was examined by isothermal titration calorimetry (ITC) assay as described, [28]. ITC assay was carried out in the auto-iTC200 instrument (MicroCal, GE) at 25 °C. Purified recombinant human or mouse Bak protein was loaded into a 96 Deepwell PP plate. BKA-073 compound was then titrated stepwise into the protein for a total of 16 injections. Reference power and initial delay were set as 5 µCal/sec and 60s, respectively. A string speed of 750 rpm was used for the ITC measurements. The binding constant (Kd) value was determined by fitting the titration curve to a one-site binding mode, using the Origin software provided by the manufacturer.
To confirm the binding of BKA-073 with Bak, we first conducted a competitive fluorescence polarization (FP) assay using purified human Bak protein, fluorescent Bak BH3 domain peptide, and BKA-073 as described, [37]-[40]. […] There are multiple amino acid differences in the BH3 domains between Bak and other Bcl2 family members, which helps to explain why BKA-073 only binds to Bak but not to other Bcl2 family members (i.e. Bax, Bcl2, Bcl-XL, Bcl-w and Mcl-1). In addition to the FP assay, isothermal titration calorimetry (ITC) was also employed to measure Bak/BKA-073 binding. […] In addition to human Bak/BKA-073 binding, we measured mouse Bak/BKA-073 binding using ITC. […]

T1 sequence (Q16611 with tags, fused parts or gaps DEL74-90 limits assumed): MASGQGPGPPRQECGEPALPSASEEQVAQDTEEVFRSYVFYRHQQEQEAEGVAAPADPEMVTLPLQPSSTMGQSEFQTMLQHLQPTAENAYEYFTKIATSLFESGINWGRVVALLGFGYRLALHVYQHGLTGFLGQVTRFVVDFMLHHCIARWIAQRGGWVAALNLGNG

**Q.** With COc1ccc2nc3ccccc3c(NCCNCC(C)O)c2c1 (stereo not shown) [BKA-073] as the compound, how does the “binding to ΔBH3 Bak mutant” value read?
**A.** failed to bind
